IC50 data for three compounds are collected here from ChEMBL document CHEMBL4725243, “High-Throughput Screening for the Discovery of Enzyme Inhibitors” (J Med Chem, 2020).

Test [1] can be described thus: Inhibition of Mycobacterium tuberculosis kanamycin resistance enzyme Eis after 5 mins in presence of AcCoA by Ellman's reagent based assay.
Test [2] can be described thus: Inhibition of Mycobacterium tuberculosis kanamycin resistance enzyme Eis preincubated for 10 mins followed by AcCoA addition and measured after 5 mins at interval of 30 sec for 20 mins by UV-Vis assay.

Regarding `Cc1ccc(C(=O)C[n+]2ccn3cccc3c2-c2ccc(F)cc2)cc1`, the IC50 in test [1] amounted to 80 nM.

`Cn1c2ccc(F)cc2c2nnc(SCCN3CCCCC3)nc21`: the IC50 in test [2] turned out to be 30 nM.

Consider `O=C(C[n+]1ccn2cccc2c1-c1ccccc1)c1ccccc1`, for which, in test [1], the IC50 came out at 64 nM.
